Experimental data published in ChEMBL document CHEMBL1201862, “PubChem BioAssay data set” (2004).
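Cultured in 96-well plates, cells were exposed to test compound for 48 hours across five concentrations. GI50 is the concentration that inhibits growth by half.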 Calls of active or inactive are those of the source. No stated cut-off is given here; in the data, active = GI50 up to about 1.1 µM and inactive = higher.

How the values were obtained:
Test in all cases: DTP human tumour cell line panel, 48 h
786-0 = test system: 786-0
A498 = test system: A498
A549 = test system: A549
BT-549 = test system: BT-549
COLO 205 = test system: COLO 205
EKVX = test system: EKVX
HCT-116 = test system: HCT-116
K562 = test system: K562
LOX IMVI = test system: LOX IMVI
MDA-N = test system: MDA-N
MOLT-4 = test system: MOLT-4
NCI-H23 = test system: NCI-H23
OVCAR-5 = test system: OVCAR-5
OVCAR-8 = test system: OVCAR-8
RPMI-8226 = test system: RPMI-8226
SF-295 = test system: SF-295
SK-OV-3 = test system: SK-OV-3
SN12C = test system: SN12C
UACC-257 = test system: UACC-257
SNB-75 = test system: SNB-75

Structure (SMILES)	GI50 (786-0)	GI50 (A498)	GI50 (A549)	GI50 (BT-549)	GI50 (COLO 205)	GI50 (EKVX)	GI50 (HCT-116)	GI50 (K562)	GI50 (LOX IMVI)	GI50 (MDA-N)	GI50 (MOLT-4)	GI50 (NCI-H23)	GI50 (OVCAR-5)	GI50 (OVCAR-8)	GI50 (RPMI-8226)	GI50 (SF-295)	GI50 (SK-OV-3)	GI50 (SN12C)	GI50 (UACC-257)	GI50 (SNB-75)
COc1cc2c(cc1OC)C1CN3CCCC3C(O)C1c1cc(OC)c(OC)cc1-2 (stereo not given)	> 100 µM (inactive)	> 100 µM (inactive)	> 100 µM (inactive)	> 100 µM (inactive)	> 100 µM (inactive)	> 100 µM (inactive)	> 100 µM (inactive)	> 100 µM (inactive)	> 100 µM (inactive)	> 100 µM (inactive)	> 100 µM (inactive)	> 100 µM (inactive)	> 100 µM (inactive)	> 100 µM (inactive)	> 100 µM (inactive)	> 100 µM (inactive)	> 100 µM (inactive)	> 100 µM (inactive)	> 100 µM (inactive)	
OC1COC(OCc2ccccc2)C(O)C1O (stereo not given)	> 100 µM (inactive)	> 100 µM (inactive)	> 100 µM (inactive)	> 100 µM (inactive)	> 100 µM (inactive)	> 100 µM (inactive)	> 100 µM (inactive)	> 100 µM (inactive)	> 100 µM (inactive)	> 100 µM (inactive)	> 100 µM (inactive)	> 100 µM (inactive)	> 100 µM (inactive)	> 100 µM (inactive)	> 100 µM (inactive)	> 100 µM (inactive)	> 100 µM (inactive)	> 100 µM (inactive)	> 100 µM (inactive)	
N#Cc1c2c(c(N)oc1=O)C(c1ccccc1)CC(=O)N2 (stereo not given)	> 100 µM (inactive)		> 100 µM (inactive)	> 100 µM (inactive)	> 100 µM (inactive)	> 100 µM (inactive)	> 100 µM (inactive)	> 100 µM (inactive)	> 100 µM (inactive)	> 100 µM (inactive)	> 100 µM (inactive)	> 100 µM (inactive)	> 100 µM (inactive)	> 100 µM (inactive)	> 100 µM (inactive)	> 100 µM (inactive)	> 100 µM (inactive)	> 100 µM (inactive)	> 100 µM (inactive)	> 100 µM (inactive)
CCNCCCNc1c2ccccc2nc2ccccc12	0.552 µM (active)	0.631 µM (active)	0.64 µM (active)	1.92 µM (inactive)	0.232 µM (active)	0.569 µM (active)	0.365 µM (active)	0.329 µM (active)	0.251 µM (active)	0.356 µM (active)	0.313 µM (active)	0.446 µM (active)	0.278 µM (active)	0.349 µM (active)		0.498 µM (active)	1.33 µM (inactive)	0.429 µM (active)	0.424 µM (active)	0.234 µM (active)
CC1C2CC(CC(=O)N2)C1(C)C (stereo not given)	> 100 µM (inactive)	> 100 µM (inactive)	> 100 µM (inactive)	> 100 µM (inactive)	> 100 µM (inactive)	> 100 µM (inactive)	> 100 µM (inactive)	> 100 µM (inactive)		> 100 µM (inactive)		> 100 µM (inactive)	> 100 µM (inactive)	> 100 µM (inactive)		> 100 µM (inactive)	> 100 µM (inactive)	> 100 µM (inactive)	> 100 µM (inactive)	> 100 µM (inactive)
CC1(Cc2cc3c(cc2C2(c4ccc([N+](=O)[O-])cc4)OCCO2)OCO3)OCCO1	> 100 µM (inactive)	> 100 µM (inactive)	43.8 µM (inactive)	29.6 µM (inactive)	67.6 µM (inactive)	> 100 µM (inactive)	> 100 µM (inactive)	61.9 µM (inactive)	> 100 µM (inactive)	> 100 µM (inactive)	32.7 µM (inactive)	55.2 µM (inactive)	> 100 µM (inactive)	59.2 µM (inactive)	27.3 µM (inactive)	> 100 µM (inactive)	> 100 µM (inactive)	> 100 µM (inactive)	90.4 µM (inactive)	
CC(C(=O)c1ccncc1)c1ccccn1 (stereo not given)	> 100 µM (inactive)	> 100 µM (inactive)	> 100 µM (inactive)	> 100 µM (inactive)	> 100 µM (inactive)	> 100 µM (inactive)	> 100 µM (inactive)	> 100 µM (inactive)	> 100 µM (inactive)	> 100 µM (inactive)		> 100 µM (inactive)	> 100 µM (inactive)	> 100 µM (inactive)	> 100 µM (inactive)	> 100 µM (inactive)	> 100 µM (inactive)	> 100 µM (inactive)	> 100 µM (inactive)	
COc1ccc2c3c1O[C@H]1C(O)CCC4(O)[C@@H](C2)NCC[C@]314 (stereo not given in full)	> 100 µM (inactive)	> 100 µM (inactive)	> 100 µM (inactive)	> 100 µM (inactive)	> 100 µM (inactive)	> 100 µM (inactive)	> 100 µM (inactive)	> 100 µM (inactive)	> 100 µM (inactive)	> 100 µM (inactive)	> 100 µM (inactive)	> 100 µM (inactive)	> 100 µM (inactive)	> 100 µM (inactive)	> 100 µM (inactive)	> 100 µM (inactive)	> 100 µM (inactive)	> 100 µM (inactive)	> 100 µM (inactive)	
CC(=O)OCC1OC(n2c(-c3ccccc3)c(/N=N/c3ccccc3)c(C)c(C#N)c2=S)C(OC(C)=O)C(OC(C)=O)C1OC(C)=O (stereo not given)	> 100 µM (inactive)		> 100 µM (inactive)	> 100 µM (inactive)	> 100 µM (inactive)		> 100 µM (inactive)	> 100 µM (inactive)	> 100 µM (inactive)	> 100 µM (inactive)	> 100 µM (inactive)	> 100 µM (inactive)	> 100 µM (inactive)		> 100 µM (inactive)	> 100 µM (inactive)	> 100 µM (inactive)	> 100 µM (inactive)	12.3 µM (inactive)	> 100 µM (inactive)
NCCC(=O)N[C@H](Cc1cc(O)c(O)c(SCC(NC(=O)CC[C@H](N)C(=O)O)C(=O)NCC(=O)O)c1)C(=O)O (stereo not given in full)	> 50 µM (inactive)	> 50 µM (inactive)	> 50 µM (inactive)	> 50 µM (inactive)	> 50 µM (inactive)	> 50 µM (inactive)	> 50 µM (inactive)	> 50 µM (inactive)		> 50 µM (inactive)		> 50 µM (inactive)	> 50 µM (inactive)		> 50 µM (inactive)	> 50 µM (inactive)	> 50 µM (inactive)	> 50 µM (inactive)	> 50 µM (inactive)	> 50 µM (inactive)
COC(=O)/C(C#N)=C1\NC(=O)CC(c2ccccc2)C1C#N (stereo not given)	> 100 µM (inactive)		> 100 µM (inactive)	> 100 µM (inactive)	> 100 µM (inactive)	> 100 µM (inactive)	> 100 µM (inactive)	> 100 µM (inactive)	> 100 µM (inactive)	> 100 µM (inactive)	> 100 µM (inactive)		> 100 µM (inactive)	> 100 µM (inactive)	> 100 µM (inactive)	> 100 µM (inactive)	> 100 µM (inactive)	> 100 µM (inactive)	> 100 µM (inactive)	> 100 µM (inactive)
CC(=O)N1N=C(N)CC1=O	> 100 µM (inactive)	> 100 µM (inactive)	> 100 µM (inactive)	> 100 µM (inactive)	> 100 µM (inactive)	> 100 µM (inactive)	> 100 µM (inactive)	> 100 µM (inactive)	> 100 µM (inactive)	> 100 µM (inactive)	> 100 µM (inactive)	> 100 µM (inactive)	> 100 µM (inactive)	> 100 µM (inactive)		> 100 µM (inactive)	> 100 µM (inactive)	> 100 µM (inactive)	> 100 µM (inactive)	> 100 µM (inactive)
O=C(c1ccccc1)n1[nH]c(=O)n(-c2ccc(Cl)cc2)c1=O	> 100 µM (inactive)		> 100 µM (inactive)	> 100 µM (inactive)	> 100 µM (inactive)	> 100 µM (inactive)	> 100 µM (inactive)	> 100 µM (inactive)	> 100 µM (inactive)	> 100 µM (inactive)	> 100 µM (inactive)	> 100 µM (inactive)	> 100 µM (inactive)	> 100 µM (inactive)	> 100 µM (inactive)	> 100 µM (inactive)	> 100 µM (inactive)	> 100 µM (inactive)	> 100 µM (inactive)	> 100 µM (inactive)
CCN(CC)c1ccc2cc(C(=O)Nc3ccccc3)c(=N)oc2c1	> 100 µM (inactive)		> 100 µM (inactive)	> 100 µM (inactive)	> 100 µM (inactive)	> 100 µM (inactive)	> 100 µM (inactive)	> 100 µM (inactive)	> 100 µM (inactive)	> 100 µM (inactive)	> 100 µM (inactive)		> 100 µM (inactive)	> 100 µM (inactive)	> 100 µM (inactive)	> 100 µM (inactive)	> 100 µM (inactive)	> 100 µM (inactive)	> 100 µM (inactive)	> 100 µM (inactive)
Cc1ccc2c(=O)c(C(=O)NNC(=S)NC3CCCCC3)c[nH]c2n1	> 100 µM (inactive)	> 100 µM (inactive)	> 100 µM (inactive)	71.3 µM (inactive)	64.6 µM (inactive)	68.9 µM (inactive)	99.5 µM (inactive)	30.6 µM (inactive)	51.3 µM (inactive)	31.6 µM (inactive)	32.7 µM (inactive)	94.8 µM (inactive)	> 100 µM (inactive)	> 100 µM (inactive)	42.8 µM (inactive)	56.8 µM (inactive)		78.7 µM (inactive)	> 100 µM (inactive)	
